test system: SK-OV-3 cells; test: Effect of compounds on tryptophan catabolism in SK-OV-3 cell line (inhibition of kynurenine production, LC-MS/MS); format: cell-based; settings: Homo sapiens, SK-OV-3, 24 h, SK-OV-3 cell line, 24 h incubation, kynurenine in supernatant by LC-MS/MS; read-out: IC50 Ranges (ic50 values for inhibition of Kynurenine production)
Method: SK-OV-3 cells are seeded in 96-well plates in McCoy's 5A medium supplemented with 10% FBS and incubated overnight at 37° C., 5% CO2, 95% humidity. The […] growth medium is replaced with DMEM F-12 medium supplemented with 6 mg/mL L-tryptophan. Compounds are added to the wells and incubated for 24 h at 37° C., 5% CO2, 95% humidity. Compounds are tested at 8 consecutive 3-fold dilutions starting from 30 μM in duplicate. At the end of incubation, concentration of kynurenine in cell supernatants is […] determined by LC-MS/MS. In parallel, cell viability is assessed by measurement of ATP using CellTiter Glo assay (Promega), according to manufacturer's protocol. Inhibition of Kyn production is calculated using the following formula: […] IC50 ranges for compounds of the invention are presented in Table 2, whereby the IC50 ranges are as follows: • A: […]

IC50	Compound
100 to 500 nM	Cc1ccc(CN(C(=O)Nc2ccc(F)c(F)c2)C2CCCC2)s1 [Compound 27, 1-cyclopentyl-3-(3,4-difluorophenyl)-1-[(5-methyl-2-thienyl)methyl]urea]
500 to 1000 nM	O=C(Nc1ccccc1)N(Cc1ccco1)C1CCCC1 [Compound 28, 1-cyclopentyl-1-(2-furylmethyl)-3-phenyl-urea]
> 5000 nM	O=C(NCCc1ccccc1)N(Cc1ccco1)C1CCCC1 [Compound 29, 1-cyclopentyl-1-(2-furylmethyl)-3-(2-phenylethyl)urea]
100 to 500 nM	O=C(Nc1ccc(F)c(F)c1)N(Cc1ccco1)C1CCCC1 [Compound 30, 1-cyclopentyl-3-(3,4-difluorophenyl)-1-(2-furylmethyl)urea]
100 to 500 nM	Cc1ccc(CN(C(=O)Nc2ccc(F)c(F)c2)C2CCCC2)o1 [Compound 31, 1-cyclopentyl-3-(3,4-difluorophenyl)-1-[(5-methyl-2-furyl)methyl]urea]
> 5000 nM	O=C(Nc1ccccc1)N(Cc1ccccn1)C1CCCCC1 [Compound 32, 1-cyclohexyl-3-phenyl-1-(2-pyridylmethyl)urea]
> 5000 nM	O=C(Nc1ccc(F)c(F)c1)N(Cc1ccccn1)C1CCCCC1 [Compound 33, 1-cyclohexyl-3-(3,4-difluorophenyl)-1-(2-pyridylmethyl)urea]
100 to 500 nM	O=C(Nc1ccc(F)cc1)N(Cc1cccs1)C1CCCC1 [Compound 34, 1-cyclopentyl-3-(4-fluorophenyl)-1-(2-thienylmethyl)urea]
1000 to 5000 nM	O=C(Nc1ccccc1)N(Cc1nccs1)C1CCCC1 [Compound 35, 1-cyclopentyl-3-phenyl-1-(thiazol-2-ylmethyl)urea]
1000 to 5000 nM	CCc1ccc(NC(=O)N(Cc2nccs2)C2CCCC2)cc1 [Compound 36, 1-cyclopentyl-3-(4-ethylphenyl)-1-(thiazol-2-ylmethyl)urea]
1000 to 5000 nM	O=C(Nc1ccc(F)c(F)c1)N(Cc1nccs1)C1CCCC1 [Compound 37, 1-cyclopentyl-3-(3,4-difluorophenyl)-1-(thiazol-2-ylmethyl)urea]
500 to 1000 nM	O=C(Nc1ccccc1)N(Cc1ccccc1Cl)C1CCCC1 [Compound 38, 1-[(2-chlorophenyl)methyl]-1-cyclopentyl-3-phenyl-urea]
> 5000 nM	CCc1ccc(NC(=O)N(Cc2ccccc2Cl)C2CCCC2)cc1 [Compound 39, 1-[(2-chlorophenyl)methyl]-1-cyclopentyl-3-(4-ethylphenyl)urea]
100 to 500 nM	O=C(Nc1ccc(F)c(F)c1)N(Cc1ccccc1Cl)C1CCCC1 [Compound 40, 1-[(2-chlorophenyl)methyl]-1-cyclopentyl-3-(3,4-difluorophenyl)urea]
1000 to 5000 nM	Cn1ncc(CN(C(=O)Nc2ccccc2)C2CCCC2)c1Cl [Compound 41, 1-[(5-chloro-1-methyl-pyrazol-4-yl)methyl]-1-cyclopentyl-3-phenyl-urea]
100 to 500 nM	CCc1ccc(NC(=O)N(Cc2cnn(C)c2Cl)C2CCCC2)cc1 [Compound 42, 1-[(5-chloro-1-methyl-pyrazol-4-yl)methyl]-1-cyclopentyl-3-(4-ethylphenyl)urea]
1000 to 5000 nM	Cn1ncc(CN(C(=O)Nc2ccc(F)c(F)c2)C2CCCC2)c1Cl [Compound 43, 1-[(5-chloro-1-methyl-pyrazol-4-yl)methyl]-1-cyclopentyl-3-(3,4-difluorophenyl) urea]
500 to 1000 nM	Cn1ncc(CN(C(=O)Nc2ccc(F)cc2)C2CCCC2)c1Cl [Compound 44, 1-[(5-chloro-1-methyl-pyrazol-4-yl)methyl]-1-cyclopentyl-3-(4-fluorophenyl) urea]
100 to 500 nM	COc1ccc(CN(C(=O)Nc2ccccc2)C2CCCC2)cc1C [Compound 45, 1-cyclopentyl-1-[(4-methoxy-3-methyl-phenyl)methyl]-3-phenyl-urea]

IC50	Compound
1000 to 5000 nM	COc1ccc(CN(C(=O)NCCc2ccccc2)C2CCCC2)cc1C [Compound 46, 1-cyclopentyl-1-[(4-methoxy-3-methyl-phenyl)methyl]-3-(2-phenylethyl)urea]
100 to 500 nM	COc1ccc(CN(C(=O)Nc2ccc(F)c(F)c2)C2CCCC2)cc1C [Compound 47, 1-cyclopentyl-3-(3,4-difluorophenyl)-1-[(4-methoxy-3-methyl-phenyl)methyl]urea]
100 to 500 nM	COc1ccc(CN(C(=O)Nc2ccc(F)cc2)C2CCCC2)cc1C [Compound 48, 1-cyclopentyl-3-(4-fluorophenyl)-1-[(4-methoxy-3-methyl-phenyl)methyl]urea]
1000 to 5000 nM	COc1ncc(CN(C(=O)Nc2ccccc2)C2CCCC2)s1 [Compound 49, 1-cyclopentyl-1-[(2-methoxythiazol-5-yl)methyl]-3-phenyl-urea]
100 to 500 nM	N#Cc1cc(CN(C(=O)Nc2ccccc2)C2CCCC2)ccc1F [Compound 50, 1-[(3-cyano-4-fluoro-phenyl)methyl]-1-cyclopentyl-3-phenyl-urea]
> 5000 nM	N#Cc1cc(CN(C(=O)NCCc2ccccc2)C2CCCC2)ccc1F [Compound 51, 1-[(3-cyano-4-fluoro-phenyl)methyl]-1-cyclopentyl-3-(2-phenylethyl)urea]
< 100 nM	N#Cc1cc(CN(C(=O)Nc2ccc(F)c(F)c2)C2CCCC2)ccc1F [Compound 52, 1-[(3-cyano-4-fluoro-phenyl)methyl]-1-cyclopentyl-3-(3,4-difluorophenyl)urea]
100 to 500 nM	N#Cc1cc(CN(C(=O)Nc2ccc(F)cc2)C2CCCC2)ccc1F [Compound 53, 1-[(3-cyano-4-fluoro-phenyl)methyl]-1-cyclopentyl-3-(4-fluorophenyl)urea]
1000 to 5000 nM	O=C(Nc1ccccc1F)N(Cc1cccs1)C1CCCC1 [Compound 54, 1-cyclopentyl-3-(2-fluorophenyl)-1-(2-thienylmethyl)urea]
500 to 1000 nM	O=C(Nc1cccc(F)c1)N(Cc1cccs1)C1CCCC1 [Compound 55, 1-cyclopentyl-3-(3-fluorophenyl)-1-(2-thienylmethyl)urea]
> 5000 nM	O=C(Nc1cccnc1)N(Cc1cccs1)C1CCCC1 [Compound 57, 1-cyclopentyl-3-(3-pyridyl)-1-(2-thienylmethyl)urea]
1000 to 5000 nM	O=C(Nc1cccs1)N(c1ccccc1)C1CCCC1 [Compound 58, 1-cyclopentyl-1-phenyl-3-(2-thienyl)urea]
500 to 1000 nM	O=C(Nc1ccc(Cl)cc1Cl)N(Cc1cccs1)C1CCCC1 [Compound 59, 1-cyclopentyl-3-(2,4-dichlorophenyl)-1-(2-thienylmethyl)urea]
500 to 1000 nM	N#Cc1ccc(CN(C(=O)Nc2ccccc2)C2CCCC2)o1 [Compound 60, 1-[(5-cyano-2-furyl)methyl]-1-cyclopentyl-3-phenyl-urea]
> 5000 nM	N#Cc1ccc(CN(C(=O)Nc2ccc(F)cc2)C2CCCC2)o1 [Compound 61, 1-[(5-cyano-2-furyl)methyl]-1-cyclopentyl-3-(4-fluorophenyl)urea]
> 5000 nM	O=C(Nc1ccc(F)cc1)N(Cc1cnoc1)C1CCCC1 [Compound 62, 1-cyclopentyl-3-(4-fluorophenyl)-1-(isoxazol-4-ylmethyl)urea]
1000 to 5000 nM	O=C(Nc1ccc(Cl)cc1)N(Cc1cnoc1)C1CCCC1 [Compound 63, 3-(4-chlorophenyl)-1-cyclopentyl-1-(isoxazol-4-ylmethyl)urea]
1000 to 5000 nM	O=C(Nc1ccccc1)N(Cc1ccoc1)C1CCCC1 [Compound 64, 1-cyclopentyl-1-(3-furylmethyl)-3-phenyl-urea]

— patent publication US20210238139A1, “MODULATORS OF TRYPTOPHAN CATABOLISM” (E-Therapeutics PLC, priority 2018, published 2021)
